In publication PMC6099232, “High V‐PPase activity is beneficial under high salt loads, but detrimental without salinity” (The New Phytologist, 2018):

What was measured:
NbVHP2 = molecular target: T1, NbVHP2 (Nicotiana benthamiana, UniProt A0A238MN04); assay: whole-vacuole patch clamp, PPi-induced proton pump current; assay type: biochemical; details: 150 μM PPi, 0 mV; 5 mM MgCl2, 100 mM K-gluconate, 0.1 mM CaCl2, pH 7.5; endogenous NbVHP background
T1 construct: gene NbPPA1.1; full-length cDNA, untagged, ubiquitin promoter in pCambia2200 with separate free eGFP; transient overexpression in N. benthamiana mesophyll; vacuoles also hold endogenous NbVHP1/2
T1 sequence (A0A238MN04 1-766): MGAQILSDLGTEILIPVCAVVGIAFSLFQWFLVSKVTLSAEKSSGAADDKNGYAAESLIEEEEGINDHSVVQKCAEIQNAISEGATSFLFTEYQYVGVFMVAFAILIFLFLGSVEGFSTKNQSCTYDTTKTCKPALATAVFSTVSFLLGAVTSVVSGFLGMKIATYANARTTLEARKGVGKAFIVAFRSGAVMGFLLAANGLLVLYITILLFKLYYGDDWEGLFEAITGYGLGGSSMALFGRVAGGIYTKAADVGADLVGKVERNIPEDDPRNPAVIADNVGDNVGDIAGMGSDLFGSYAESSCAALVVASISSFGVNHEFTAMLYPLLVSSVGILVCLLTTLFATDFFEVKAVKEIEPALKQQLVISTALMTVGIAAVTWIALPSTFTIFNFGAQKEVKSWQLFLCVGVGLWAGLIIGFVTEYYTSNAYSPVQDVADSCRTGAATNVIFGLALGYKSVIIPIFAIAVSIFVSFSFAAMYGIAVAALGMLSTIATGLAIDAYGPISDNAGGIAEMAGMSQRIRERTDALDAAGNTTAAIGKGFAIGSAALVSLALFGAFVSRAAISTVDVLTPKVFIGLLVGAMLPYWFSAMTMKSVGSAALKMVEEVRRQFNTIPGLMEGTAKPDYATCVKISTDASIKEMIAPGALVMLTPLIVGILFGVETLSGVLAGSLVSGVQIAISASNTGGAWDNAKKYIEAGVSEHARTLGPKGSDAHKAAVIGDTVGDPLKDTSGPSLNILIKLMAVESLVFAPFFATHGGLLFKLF

IPP1 = molecular target: T2, IPP1 (Saccharomyces cerevisiae, UniProt P00817); assay: PPi hydrolysis activity of leaf protein extract; assay type: biochemical; details: activity compared with control
T2 construct: soluble PPase, cDNA under ubiquitin promoter in pCambia2200, transiently overexpressed in N. benthamiana leaves

[1] = substrate: O=P(O)(O)OP(=O)(O)O; assay: whole-vacuole patch clamp, PPi-induced proton pump current; assay type: biochemical, Arabidopsis thaliana; details: 0 mV, 5 mM MgCl2, 100 mM K-gluconate, 0.1 mM CaCl2, pH 7.5, about one-third of current from endogenous NbVHP1/2
[2] = substrate: O=P(O)(O)OP(=O)(O)O; assay: as above; assay type: biochemical, Nicotiana benthamiana; details: 0 mV, cytosolic pH 7.5, global fit of luminal pH 7.5 and 5.5, 5 mM MgCl2, 100 mM K-gluconate, 0.1 mM CaCl2, endogenous NbVHP background

T2 sequence (P00817 2-287): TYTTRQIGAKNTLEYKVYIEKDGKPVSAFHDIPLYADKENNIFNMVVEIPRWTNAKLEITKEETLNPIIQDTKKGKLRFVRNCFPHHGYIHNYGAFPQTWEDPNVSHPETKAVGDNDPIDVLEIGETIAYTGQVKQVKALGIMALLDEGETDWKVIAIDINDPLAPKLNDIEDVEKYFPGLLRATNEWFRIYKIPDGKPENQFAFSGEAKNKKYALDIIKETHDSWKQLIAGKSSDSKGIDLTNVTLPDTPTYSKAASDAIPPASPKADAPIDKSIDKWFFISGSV

Molecule: O=P(O)(O)OP(=O)(O)O [PPi, pyrophosphate]
- whole-vacuole patch clamp, PPi-induced proton pump current (NbVHP2): almost four times higher in vacuoles from NbVHP1‐ or NbVHP2‐overexpressing mesophyll cells
- PPi hydrolysis activity of leaf protein extract (IPP1): IPP1‐transformed N. benthamiana leaves exhibited a hydrolytic PPi activity

B1: AtVHP1 (Arabidopsis thaliana) (protein)
chain: MVAPALLPELWTEILVPICAVIGIAFSLFQWYVVSRVKLTSDLGASSSGGANNGKNGYGDYLIEEEEGVNDQSVVAKCAEIQTAISEGATSFLFTEYKYVGVFMIFFAAVIFVFLGSVEGFSTDNKPCTYDTTRTCKPALATAAFSTIAFVLGAVTSVLSGFLGMKIATYANARTTLEARKGVGKAFIVAFRSGAVMGFLLAASGLLVLYITINVFKIYYGDDWEGLFEAITGYGLGGSSMALFGRVGGGIYTKAADVGADLVGKIERNIPEDDPRNPAVIADNVGDNVGDIAGMGSDLFGSYAEASCAALVVASISSFGINHDFTAMCYPLLISSMGILVCLITTLFATDFFEIKLVKEIEPALKNQLIISTVIMTVGIAIVSWVGLPTSFTIFNFGTQKVVKNWQLFLCVCVGLWAGLIIGFVTEYYTSNAYSPVQDVADSCRTGAATNVIFGLALGYKSVIIPIFAIAISIFVSFSFAAMYGVAVAALGMLSTIATGLAIDAYGPISDNAGGIAEMAGMSHRIRERTDALDAAGNTTAAIGKGFAIGSAALVSLALFGAFVSRAGIHTVDVLTPKVIIGLLVGAMLPYWFSAMTMKSVGSAALKMVEEVRRQFNTIPGLMEGTAKPDYATCVKISTDASIKEMIPPGCLVMLTPLIVGFFFGVETLSGVLAGSLVSGVQIAISASNTGGAWDNAKKYIEAGVSEHAKSLGPKGSEPHKAAVIGDTIGDPLKDTSGPSLNILIKLMAVESLVFAPFFATHGGILFKYF
notes: untagged cDNA, ubiquitin promoter in pCambia2200 with separate free eGFP; transient overexpression in N. benthamiana mesophyll; about one-third of the current from endogenous NbVHP1/2
- Km [1]: 75 ± 11 µM

B2: NbVHP1 (Nicotiana benthamiana) (protein)
chain: MGAALLPDLGTEIVIPVCAVIGIVFSLVQWYIVSNVKLTPESSSPSNNGKNGYGDYLIEEEEGINDQNVVVKCAEIQNAISEGATSFLFTEYQYVGIFMIAFAILIFLFLGSVEGFSTKSQPCTYNKEKLCKPALATAIFSTVSFLLGAITSVVSGFLGMKVATYANARTTLEARKGVGKAFIVAFRSGAVMGFLLAANGLLVLYIAINLFKLYYGDDWEGLFEAITGYGLGGSSMALFGRVGGGIYTKAADVGADLVGKVERNIPEDDPRNPAVIADNVGDNVGDIAGMGSDLFGSYAEASCAALVVASISSFGINHEFTAMLYPLLISSMGVLICLITTLFATDFFEIKAVKEIEPALKNQLIISTALMTVGIAIVTWTCLPSSFTIFNFGAQKVVKNWQLFLCVAVGLWAGLIIGFVTEYYTSNTYSPVQDVADSCRTGAATNVIFGLALGYKSVIIPIFAIAIAIFVSFSFAAMYGIAVAALGMLSTIATGLAIDAYGPISDNAGGIAEMAGMSHRIRERTDALDAAGNTTAAIGKGFAIGSAALVSLALFGAFVSRAAITTVDVLTPQVFIGLIVGAMLPYWFSAMTMKSVGSAALKMVEEVRRQFNTIPGLMEGTAKPDYATCVKISTDASIKEMIPPGALVMLTPLIVGIFFGVETLSGVLAGALVSGVQIAISASNTGGAWDNAKKYIEAGASEHARTLGPKGSEPHKAAVIGDTIGDPLKDTSGPSLNILIKLMAVESLVFAPFFATHGGLLFKIF
notes: full-length cDNA, untagged, ubiquitin promoter in pCambia2200 with separate free eGFP; transient overexpression in N. benthamiana mesophyll; vacuoles also hold endogenous NbVHP1/2; homodimer of c; 80 kDa polypeptide
- Km [2]: 65 ± 9 µM
